Among the data in EP4227307A1 (Genzyme Corporation, priority 2022, dated 2023) are IC50 values, retold here.

Molecules are shown by their SMILES.

The assay addresses T1, human recombinant 6His-Nterm SHP2 full-length (Thr2-Arg593) (Homo sapiens, UniProt Q06124).
T1 construct: 6His-Nterm SHP2 full-length (Thr2-Arg593, R&D system); 6His (N); purchased R&D system
T1 sequence (Q06124 2-593): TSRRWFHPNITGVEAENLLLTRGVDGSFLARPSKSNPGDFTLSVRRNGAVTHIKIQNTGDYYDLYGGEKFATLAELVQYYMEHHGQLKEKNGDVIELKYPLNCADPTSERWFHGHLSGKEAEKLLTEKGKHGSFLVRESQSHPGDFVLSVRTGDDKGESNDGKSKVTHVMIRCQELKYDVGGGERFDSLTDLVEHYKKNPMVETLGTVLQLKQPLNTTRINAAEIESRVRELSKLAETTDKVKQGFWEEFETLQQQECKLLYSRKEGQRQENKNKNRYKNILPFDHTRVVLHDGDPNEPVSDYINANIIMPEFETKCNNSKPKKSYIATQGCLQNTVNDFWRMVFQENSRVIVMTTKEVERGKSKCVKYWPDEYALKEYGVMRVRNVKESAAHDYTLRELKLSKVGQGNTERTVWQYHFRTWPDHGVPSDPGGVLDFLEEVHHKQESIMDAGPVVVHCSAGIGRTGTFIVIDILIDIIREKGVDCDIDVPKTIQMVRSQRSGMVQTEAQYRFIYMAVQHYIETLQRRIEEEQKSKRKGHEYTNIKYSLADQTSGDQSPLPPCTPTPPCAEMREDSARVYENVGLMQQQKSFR
Description: SHP2 Phosphatase Assay (DiFMUP fluorescence). The note with it: SHP2 0.2 nM pre-incubated with 100 nM bi-phosphorylated activating peptide; compound 1000-0.05 nM, 30 min pre-incubation; DiFMUP 20 µM, 45 min, room temperature; 10-concentration dose-response. The assay is classed as biochemical. The method, boiled down: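 SHP2 (0.2 nM) preactivated ≥10 min with 100 nM bis-phosphorylated peptide, then 30 min with compound (10 concentrations, 1000–0.05 nM) at room temperature, pH 7.2 HEPES buffer with DTT. DiFMUP (20 µM, added solution) reacted 45 min, pervanadate-stopped; fluorescence 350/450 nm. IC50 by 4-parameter logistic fit.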
A word on the IC50: it is the concentration that inhibits the measured activity by half. As for `Cc1nc(N2CCC3(CC2)Cc2ncccc2[C@H]3N)c2ccnn2c1-c1ccc2c(c1)CCO2` [Compound 188, (5S)-1'-[7-(2,3-dihydrobenzofuran-5-yl)-6-methyl-pyrazolo[1,5-a]pyrazin-4-yl]spiro[5,7-dihydrocyclopenta[b]pyridine-6,4'-piperidine]-5-amine], the IC50 amounted to 0.007 µM.

`Cc1nc(N2CCC3(CC2)Cc2ncccc2[C@H]3N)c2ccnn2c1-c1ccc(CC#N)cc1` [Compound 189, 2-[4-[6-methyl-4-[(5S)-5-aminospiro[5,7-dihydrocyclopenta[b]pyridine-6,4'-piperidine]-1'-yl]pyrazolo[1,5-a]pyrazin-7-yl]phenyl]acetonitrile]: the IC50 was determined as 0.004 µM.

Regarding `Cc1nc(N2CCC3(CC2)Cc2ncccc2[C@H]3N)c2ccnn2c1-c1ccc(C#N)s1` [Compound 190, 5-[6-methyl-4-[(5S)-5-aminospiro[5,7-dihydrocyclopenta[b]pyridine-6,4'-piperidine]-1'-yl]pyrazolo[1,5-a]pyrazin-7-yl]thiophene-2-carbonitrile], the IC50 amounted to 0.031 µM.

In the case of `Cc1nc(N2CCC3(CC2)Cc2ncccc2[C@H]3N)c2ccnn2c1-c1cccc(CO)c1` [Compound 191, [3-[6-methyl-4-[(5S)-5-aminospiro [5,7-dihydrocyclopenta[b]pyridine-6,4'-piperidine]-1'-yl]pyrazolo[1,5-a]pyrazin-7-yl]phenyl]methanol], the IC50 stood at 0.016 µM.

For the compound `Cc1nc(N2CCC3(CC2)Cc2ncccc2[C@H]3N)c2ccnn2c1-c1cccc(Cl)c1Cl` [Compound 192, (5S)-1'-[7-(2,3-dichlorophenyl)-6-methyl-pyrazolo[1,5-a]pyrazin-4-yl]spiro[5,7-dihydrocyclopenta[b]pyridine-6,4'-piperidine]-5-amine], the half-maximal inhibitory concentration (IC50) was 0.002 µM.

Take `Cc1nc(N2CCC3(CC2)Cc2ncccc2[C@H]3N)c2ccnn2c1-c1ccc(F)cc1F` [Compound 193, (5S)-1'-[7-(2,4-difluorophenyl)-6-methyl-pyrazolo[1,5-a]pyrazin-4-yl]spiro[5,7-dihydrocyclopenta[b]pyridine-6,4'-piperidine]-5-amine]: the IC50 was 0.003 µM.

Regarding `Cc1nc(N2CCC3(CC2)Cc2ncccc2[C@H]3N)c2ccnn2c1-c1ccsc1` [Compound 194, (5S)-1'-[6-methyl-7-(3-thienyl)pyrazolo[1,5-a]pyrazin-4-yl]spiro[5,7-dihydrocyclopenta[b]pyridine-6,4'-piperidine]-5-amine], the concentration for half-maximal inhibition (IC50) was found to be 0.005 µM.

On to `Cc1nc(N2CCC3(CC2)Cc2ncccc2[C@H]3N)c2ccnn2c1-c1cc(F)ccc1F` [Compound 195, (5S)-1'-[7-(2,5-difluorophenyl)-6-methyl-pyrazolo[1,5-a]pyrazin-4-yl]spiro[5,7-dihydrocyclopenta[b]pyridine-6,4'-piperidine]-5-amine], for which the IC50 turned out to be 0.004 µM.

For `Cc1nc(N2CCC3(CC2)Cc2ncccc2[C@H]3N)c2ccnn2c1C1=CCOCC1` [Compound 196, (5S)-1'-[7-(3,6-dihydro-2H-pyran-4-yl)-6-methyl-pyrazolo[1,5-a]pyrazin-4-yl]spiro[5,7-dihydrocyclopenta[b]pyridine-6,4'-piperidine]-5-amine], the IC50 stood at 0.083 µM.

In the case of `Cc1nc(N2CCC3(CC2)Cc2ncccc2[C@H]3N)c2ccnn2c1-c1cccc(F)c1C` [Compound 197, (5S)-1'-[7-(3-fluoro-2-methyl-phenyl)-6-methyl-pyrazolo[1,5-a]pyrazin-4-yl]spiro[5,7-dihydrocyclopenta[b]pyridine-6,4'-piperidine]-5-amine], the IC50 came out at 0.007 µM.

With `Cc1nc(N2CCC3(CC2)Cc2ncccc2[C@H]3N)c2ccnn2c1-c1ccnc(N2CCOCC2)c1F` [Compound 198, (5S)-1'-[7-(3-fluoro-2-morpholino-4-pyridyl)-6-methyl-pyrazolo[1,5-a]pyrazin-4-yl]spiro[5,7-dihydrocyclopenta[b]pyridine-6,4'-piperidine]-5-amine], the IC50 turned out to be 0.437 µM.

In the case of `Cc1nc(N2CCC3(CC2)Cc2ncccc2[C@H]3N)c2ccnn2c1-c1cncc(Cl)c1` [Compound 199, (5S)-1'-[7-(5-chloro-3-pyridyl)-6-methyl-pyrazolo[1,5-a]pyrazin-4-yl]spiro[5,7-dihydrocyclopenta[b]pyridine-6,4'-piperidine]-5-amine], the half-maximal inhibitory concentration (IC50) came out at 0.014 µM.

Consider `COc1c(F)cccc1-c1c(C)nc(N2CCC3(CC2)Cc2ncccc2[C@H]3N)c2ccnn12` [Compound 200], for which the IC50 was 0.044 µM.

Take `Cc1nc(N2CCC3(CC2)Cc2ncccc2[C@H]3N)c2ccnn2c1-c1ccc(F)c(F)c1` [Compound 201, (5S)-1'-[7-(3,4-difluorophenyl)-6-methyl-pyrazolo[1,5-a]pyrazin-4-yl]spiro[5,7-dihydrocyclopenta[b]pyridine-6,4'-piperidine]-5-amine]: the IC50 came to 0.003 µM.

For `Cc1nc(N2CCC3(CC2)Cc2ncccc2[C@H]3N)c2ccnn2c1-c1ccc2ncccc2c1` [Compound 202, (5S)-1'-[6-methyl-7-(6-quinolyl)pyrazolo[1,5-a]pyrazin-4-yl]spiro[5,7-dihydrocyclopenta[b]pyridine-6,4'-piperidine]-5-amine], the IC50 was determined as 0.026 µM.

Regarding `Cc1nc(N2CCC3(CC2)Cc2ncccc2[C@H]3N)c2ccnn2c1-c1cccc(F)c1` [Compound 203, (5S)-1'-[7-(3-fluorophenyl)-6-methyl-pyrazolo[1,5-a]pyrazin-4-yl]spiro[5,7-dihydrocyclopenta[b]pyridine-6,4'-piperidine]-5-amine], the IC50 was 0.006 µM.

Consider `CC(=O)c1ccc(F)c(-c2c(C)nc(N3CCC4(CC3)Cc3ncccc3[C@H]4N)c3ccnn23)c1` [Compound 204, 1-[4-fluoro-3-[6-methyl-4-[(5S)-5-aminospiro [5,7-dihydrocyclopenta[b]pyridine-6,4'-piperidine]-1'-yl]pyrazolo[1,5-a]pyrazin-7-yl]phenyl]ethanone], for which the IC50 is 0.055 µM.

With `Cc1nc(N2CCC3(CC2)Cc2ncccc2[C@H]3N)c2ccnn2c1-c1ccc(C#N)cc1F` [Compound 206, 3-fluoro-4-[6-methyl-4-[(5S)-5-aminospiro[5,7-dihydrocyclopenta[b]pyridine-6,4'-piperidine]-1'-yl]pyrazolo[1,5-a]pyrazin-7-yl]benzonitrile], the half-maximal inhibitory concentration (IC50) came to 0.012 µM.

Regarding `Cc1nc(N2CCC3(CC2)Cc2ncccc2[C@H]3N)c2ccnn2c1-c1ccnc(CO)c1Cl` [Compound 207, [4-[4-[(5S)-5-aminospiro[5,7-dihydrocyclopenta[b]pyridine-6,4'-pipetidine]-1'-yl]-6-methyl-pyrazolo[1,5-a]pyrazin-7-yl]-3-chloro-2-pyridyl]methanol], the concentration for half-maximal inhibition (IC50) came out at 0.016 µM.

With `Cc1nc(N2CCC3(CC2)Cc2ncccc2[C@H]3N)c2ccnn2c1-c1ccc(F)c2cc[nH]c12` [Compound 208, (5S)-1'-[7-(4-fluoro-1H-indol-7-yl)-6-methyl-pyrazolo[1,5-a]pyrazin-4-yl]spiro[5,7-dihydrocyclopenta[b]pyridine-6,4'-piperidine]-5-amine], the IC50 came out at 0.003 µM.

Regarding `Cc1nc(N2CCC3(CC2)Cc2ncc(C#N)cc2[C@H]3N)c2ccnn2c1-c1ccccc1F` [Compound 209, (5S)-5-amino-1'-[7-(2-fluorophenyl)-6-methyl-pyrazolo[1,5-a]pyrazin-4-yl]spiro[5,7-dihydrocyclopenta[b]pyridine-6,4'-piperidine]-3-carbonitrile], the IC50 came out at 0.021 µM.

On to `Cc1nc(N2CCC3(CC2)Cc2ncccc2[C@H]3N)c2ccnn2c1C1CC1` [Compound 210, (5S)-1'-(7-cyclopropyl-6-methyl-pyrazolo[1,5-a]pyrazin-4-yl)spiro[5,7-dihydrocyctopenta[b]pyridine-6,4'-piperidine]-5-amine], for which the IC50 is greater than 1 µM.

`COc1ccc2c(n1)[C@@H](N)C1(CCN(c3nc(C)c(-c4cccc(F)c4F)n4nccc34)CC1)C2` [Compound 213, (7S)-1'-[7-(2,3-difluorophenyl)-6-methyl-pyrazolo[1,5-a]pyrazin-4-yl]-2-methoxy-spiro[5,7-dihydrocyclopenta[b]pyridine-6,4'-piperidine]-7-amine]: the IC50 is 0.022 µM.

As for `COc1ccc2c(n1)[C@H](N)C1(CCN(c3nc(C)c(-c4cccc(F)c4F)n4nccc34)CC1)C2` [Compound 214, (7R)-1'-[7-(2,3-difluorophenyl)-6-methyl-pyrazolo [1,5-a]pyrazin-4-yl]-2-methoxy-spiro[5,7-dihydrocyclopenta[b]pyridine-6,4'-piperidine]-7-amine], the IC50 came out at 0.594 µM.

Regarding `COc1ccc2c(n1)[C@@H](N)C1(CCN(c3nc(C)c(-c4cccc(F)c4Cl)n4nccc34)CC1)C2` [Compound 215, (7S)-1'-[7-(2-chloro-3-fluoro-phenyl)-6-methyl-pyrazolo[1,5-a]pyrazin-4-yl]-2-methoxy-spiro[5,7-dihydrocyclopenta[b]pyridine-6,4'-piperidine]-7-amine], the IC50 was determined as 0.023 µM.
